Key:
[1] = system: HCT 116 human colon carcinoma; experiment: MTT cell growth inhibition, HCT 116; type: cell-based; conditions: HCT 116, MTT, 5-10 days
Procedure: (§1) The following experiment confirms that the elsamitrucin salts made in accordance with the teachings of the present disclosure retain their in vitro anti-neoplastic activity when compared to elsamitrucin base. Elsamitrucin and elsamitrucin tosylate were tested in vitro using: B16F10 (murine […]), HCT 116 (human colon), HT29 (human colon) and SK-MES-1 (human non-small cell lung carcinoma). Cell growth inhibition was evaluated in 96-well micro-culture plates with a semi-automated MTT (3-(4,5-dimethylthiazol-2-yl)-2,5-diphenyltetrazolium bromide) assay. […]
(§2) Cell culture plates seeded with test cells and various concentrations of elsamitrucin solutions were placed in a humidified incubator at 37° C., with CO2 and 95% air for 5-10 days. […] Absorbance was monitored at a wavelength of 595 nm, and at a reference wavelength of 650 nm, using a TECAN® GENios mocroplate reader. In all experiments, absorbance data was acquired for each agent at two overlapping concentration ranges. […]
(§3) The results of each test were stored and imported into PRISM® 3.03 for graphical analysis and determination of IC50 values. All results were graphed as a percentage of controlled absorbance versus the drug concentration. […]

[2] = solid state stability, drying at elevated temperatures (NMR); type: physicochemical; conditions: vacuum oven 75° C. nine hours; 98° C. overnight; NMR 1:1 salt ratio
Procedure: (§4) Elsamitrucin salts made in accordance with the teachings of the present disclosure were tested for stability. Two samples of the isolated p-TSA salt (40 mg each) were placed in a vacuum oven at 75° C. for nine hours. After this exposure, sample #1 was taken out, the temperature was increased to 98° C. and the second sample was dried overnight. […] The weight loss by TGA was approximately 2.5% for both samples. Karl Fischer analysis indicated the two lots still had water present: sample #1 had 4.0% water content and #2 had 4.6%. The p-TSA salt (16 mg) of elsamitrucin was dissolved in 1.6 mL of benzoate buffer (pH 4) and stirred at 50° C. for ten days. Samples for HPLC and MS were taken in 3, 5, and 10 days.

[3] = system: SK-MES-1 human non-small cell lung carcinoma; experiment: MTT cell growth inhibition, SK-MES-1; type: cell-based; conditions: SK-MES-1, MTT, 5-10 days
Procedure: as §1, §2, §3

[4] = solubility of the p-TSA salt checked by HPLC; type: physicochemical; conditions: for solubility at pH 4 / Concentration (mg/mL) / solubility in water / Concentration: HPLC; for solubility in water / Concentration: slurry stirred at room temperature for six hours
Text: The solubility of the p-TSA salt in water was checked by HPLC after stirring the slurry at room temperature for six hours.

[5] = system: HT29 human colon carcinoma; experiment: MTT cell growth inhibition, HT29; type: cell-based; conditions: 5-10 days
Procedure: as §1, §2, §3

[6] = system: B16F10 murine melanoma cells; experiment: MTT cell growth inhibition, B16F10; type: cell-based; conditions: 5-10 days
Procedure: as §1, §2, §3

[7] = solution stability in benzoate buffer (HPLC, MS); type: physicochemical; conditions: benzoate buffer (pH 4), 50° C., ten days, samples at 3, 5, 10 days
Procedure: as §4

Substance: elsamitrucin tosylate [Elsamitrucin p-TSA Salt]
- IC50 [1]: 79 nM
- decomposition in the solid state during drying [2]: no decomposition
- IC50 [3]: 45 nM
- Vial Concentration ([4]; pH 4 (benzoate buffer)): 0.01789 M
- solubility at pH 4 / Concentration (mg/mL) ([4]; pH 4 (benzoate buffer)): 14.7 mg/mL
- solubility at pH 4 / Concentration (mg/mL) ([4]; pH 4 (benzoate buffer), listed as OVL-A-143): 14.78 mg/mL
- Vial Concentration ([4]; water): 0.01891 M
- solubility in water / Concentration ([4]; water): 15.6 mg/mL
- solubility in water / Concentration ([4]; water, listed as OVL-A-137): 15.61 mg/mL
- IC50 [5]: 105 nM
- IC50 [6]: 28 nM
- decomposition in solution [7]: No evidence of the decomposition product

Source: US20110251143A1, “STABLE ELSAMITRUCIN SALT FORMULATIONS” (Spectrum Pharmaceuticals, Inc., priority 2007, published 2011)
